Patent US9987276B2 (Celgene CAR LLC, priority 2008, dated 2018)
“Also recorded” adds a separate entry of the source.

Experiments:
EGFR T790M = EGFR T790M (Homo sapiens (Human), UniProt P00533, T790M); assay: EGFR mutant T790M inhibition assay; type: biochemical
Procedure: The Omnia Assay Protocol for potency assessment against EGFR is performed as described in Example 251 above except that the EGFR-WT- and EGFR T790M/L858R-modified optimized reagent conditions are: […]

[1] = Collagen antibody induced arthritis model; type: in vivo; conditions: Dose 30 mg/kg
Procedure: On day 0 baseline footpad measurements were made and animals were distributed to the experimental groups in such a way as to generate groups with no significant differences between the groups. Each animal was then inoculated intravenously with 2 mg Arthritomab monoclonal antibody cocktail. Treatment with test agents began at this time. On day 6, each animal was injected intraperitoneally with 50 μg LPS in 200 μl of sterile PBS. Footpad measurements and clinical scoring were conducted on days 6, 7, 8, 9, 10, 11, 12, 14, 18, and 21.

BTK [2] = target: T1, BTK (Homo sapiens (Human), UniProt Q06187); assay: BTK occupancy from in vitro samples by ELISA (Ramos cells); type: cell-based; conditions: ELISA with probe I-215
Procedure: In order to determine the amount of free BTK in cell or tissue lysates, an ELISA protocol was employed that utilizes a biotinylated probe compound that binds only to free, unoccupied BTK. The conjugated biotin is captured on a streptavidin-coated ELISA plate and detected with a mouse anti-BTK antibody (Becton Dickinson, Franklin Lakes, N.J., USA) and a secondary goat anti-mouse HRP antibody (Zymed, South San Francisco, Calif., USA).
All samples were prepared with equal concentrations of Biorad lysis buffer (Hercules, Calif., USA), 0.5% bovine serum albumin in PBS with 0.05% Tween-20 to give a final concentration of 1 μM I-215. Samples were incubated in a mixing plate for 1 hr at room temperature while shaking to allow probe compound I-215 to bind to free BTK. After incubation with I-215, samples were added to a washed, streptavidin-coated ELISA plate (Pierce, Rockford, Ill., USA) and incubated for 1 hr at room temperature while shaking. The plate was then washed with PBS containing 0.05% Tween-20 using an automatic plate washer. Anti-BTK antibody was prepared at 1:1000 dilution in 0.5% BSA in PBS (0.05% Tween-20) and added to the ELISA plate. The plate was incubated for 1 hr at room temperature while shaking. The plate was washed as described above and the secondary HRP antibody was prepared at 1:5000 dilution in 0.5% BSA in PBS (0.05% Tween-20). The plate was incubated and washed as described above. TMB was added to the plate, and OD650 was monitored until reaching 1 OD unit. The reaction was then stopped with addition of H2SO4. The plate was analyzed using Gen 5 software, and a 4 Parameter Logistic curve was employed to quantitate samples. Recombinant BTK (Invitrogen, Carlsbad, Calif., USA) was used for the standard curve.
A concentration designated as “A” is greater than 1 nM; a concentration designated as “B” is greater than 10 nM; and a concentration designated as “C” is greater than 50 nM.

PG-PS arthritis model = type: in vivo; conditions: female Lewis rats, oral gavage daily through day 22
Procedure: On day 0, female Lewis rats received an intraperitoneal (IP) bolus of peptidoglycan-polysaccharide (PG-PS) in an amount of 15 μg/g rat body weight. Baseline control rats received an IP bolus of PBS. The vehicle and treatment groups were dosed via oral gavage just prior to PG-PS administration. Treatment with vehicle and compound continued each day through day 22. Maximal lateral ankle width measurements of both rear limbs were collected with a caliper throughout the study. On day 23, study was terminated and the final change in ankle swelling was calculated and compared to vehicle controls.

JAK3 kinase = JAK3 kinase (Homo sapiens (Human), UniProt P52333); assay: Mass spectrometry for Janus-3 kinase (JAK3); type: binding; conditions: 3 hrs at 10× excess, tryptic digest
Procedure: JAK3 kinase (33 pmols; Invitrogen) was incubated with (I-7) (327 pmols) for 3 hrs at 10× excess prior to tryptic digestion. Iodoacetamide was used as the alkylating agent after compound incubation. For tryptic digests a 5 ul aliquot (5.5 pmols) was diluted with 15 ul of 0.1% TFA prior to micro C18 Zip Tipping directly onto the MALDI target using alpha cyano-4-hydroxy cinnamic acid as the matrix (5 mg/ml in 0.1% TFA:Acetonitrile 50:50).
As depicted in FIG. 11, the expected peptide ([…]) to be modified was immediately evident as the largest peak at MH+ of 1725.88. This is the mass to be expected when compound I-7, with an adduct mass of 345.16, is added to the peptide mass of 1380.70. […] There was also evidence for a number of other modified peptides, however, their signals were low.
To further verify the presence of the modified peptides with compound I-7, the peptides at MH+ of 1725.88 and 1118.55 were subjected to PSD (MS/MS) analysis. A correlational analysis with the homosapien database identified the correct peptides as being modified by I-7.
For tryptic digests the instrument was set in Reflectron mode with a pulsed extraction setting of 2200. Calibration was done using the Laser Biolabs Pep Mix standard ([…], 1296.69, 1672.92, 2093.09, 2465.20). […]

[3] = tested on: TI-2 independent B cell activation; assay: In vivo thymus-independent (TI-2) B cell activation; conditions: C57/B6 mice, 100 mg/kg daily day 0 through 5, TNP-Ficoll, serum day 6
BTK [4] = target: T1, BTK; assay: BTK occupancy in Ramos cells with I-7 and probe I-215 using streptavidin beads; type: cell-based; conditions: 1 hour, higher concentrations of I-7 (0.1, 0.05 μM)
Procedure: Ramos cells were incubated with 0.1, 0.05, 0.01, or 0.001 μM I-7 in serum free media for 1 hour at 37° C. The cells were pelleted by centrifugation and lysed in Cell Extraction buffer (Invitrogen) for 10 minutes on ice, centrifuged (10 minutes at 14,000 rpm) and the supernatant was collected. Cell lysates were incubated with 1 μM I-215 for 1 hour at room temperature, then incubated with streptavidin-coupled agarose beads (ThermoFisher) overnight at 4° C. The beads were washed three times with lysis buffer and the bound proteins were boiled off the beads at 95° C. for 5 minutes in 4×LDS Sample Buffer. The amount of BTK associated with the probe I-215 was assessed by BTK western blot. All values were normalized to the DMSO-treated sample which is set to 100%.

BTK [5] = target: T1, BTK; assay: Mass spectrometry for BTK (intact protein); type: binding; conditions: 1 hr, 10× fold excess of compound
Procedure: Intact BTK was incubated for 1 hr at a 10× fold excess of I-7 to protein. Aliquots (2 μl) of the samples were diluted with 10 μl of 0.1% TFA prior to micro C4 ZipTipping directly onto the MALDI target using Sinapinic acid as the desorption matrix (10 mg/ml in 0.1% TFA:Acetonitrile 20:80).

T1 sequence (Q06187 whole entry): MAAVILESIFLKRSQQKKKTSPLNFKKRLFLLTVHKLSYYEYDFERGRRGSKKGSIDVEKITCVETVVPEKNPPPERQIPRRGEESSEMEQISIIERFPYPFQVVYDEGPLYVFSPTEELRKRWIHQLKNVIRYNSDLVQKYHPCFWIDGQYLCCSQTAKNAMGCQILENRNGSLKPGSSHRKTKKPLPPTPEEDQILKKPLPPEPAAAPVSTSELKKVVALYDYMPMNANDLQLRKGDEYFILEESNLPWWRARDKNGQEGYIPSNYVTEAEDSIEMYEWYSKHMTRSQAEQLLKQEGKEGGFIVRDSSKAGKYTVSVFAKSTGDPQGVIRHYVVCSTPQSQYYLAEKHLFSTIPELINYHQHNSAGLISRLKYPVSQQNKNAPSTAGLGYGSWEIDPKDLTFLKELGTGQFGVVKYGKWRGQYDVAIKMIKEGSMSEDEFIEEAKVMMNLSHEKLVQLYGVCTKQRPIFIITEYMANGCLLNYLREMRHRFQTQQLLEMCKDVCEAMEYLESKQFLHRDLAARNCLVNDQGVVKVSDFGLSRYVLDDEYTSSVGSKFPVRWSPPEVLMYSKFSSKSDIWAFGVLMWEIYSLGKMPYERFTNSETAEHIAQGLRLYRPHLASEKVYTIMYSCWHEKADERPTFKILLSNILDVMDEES
Sequence of JAK3 kinase (P52333 whole entry): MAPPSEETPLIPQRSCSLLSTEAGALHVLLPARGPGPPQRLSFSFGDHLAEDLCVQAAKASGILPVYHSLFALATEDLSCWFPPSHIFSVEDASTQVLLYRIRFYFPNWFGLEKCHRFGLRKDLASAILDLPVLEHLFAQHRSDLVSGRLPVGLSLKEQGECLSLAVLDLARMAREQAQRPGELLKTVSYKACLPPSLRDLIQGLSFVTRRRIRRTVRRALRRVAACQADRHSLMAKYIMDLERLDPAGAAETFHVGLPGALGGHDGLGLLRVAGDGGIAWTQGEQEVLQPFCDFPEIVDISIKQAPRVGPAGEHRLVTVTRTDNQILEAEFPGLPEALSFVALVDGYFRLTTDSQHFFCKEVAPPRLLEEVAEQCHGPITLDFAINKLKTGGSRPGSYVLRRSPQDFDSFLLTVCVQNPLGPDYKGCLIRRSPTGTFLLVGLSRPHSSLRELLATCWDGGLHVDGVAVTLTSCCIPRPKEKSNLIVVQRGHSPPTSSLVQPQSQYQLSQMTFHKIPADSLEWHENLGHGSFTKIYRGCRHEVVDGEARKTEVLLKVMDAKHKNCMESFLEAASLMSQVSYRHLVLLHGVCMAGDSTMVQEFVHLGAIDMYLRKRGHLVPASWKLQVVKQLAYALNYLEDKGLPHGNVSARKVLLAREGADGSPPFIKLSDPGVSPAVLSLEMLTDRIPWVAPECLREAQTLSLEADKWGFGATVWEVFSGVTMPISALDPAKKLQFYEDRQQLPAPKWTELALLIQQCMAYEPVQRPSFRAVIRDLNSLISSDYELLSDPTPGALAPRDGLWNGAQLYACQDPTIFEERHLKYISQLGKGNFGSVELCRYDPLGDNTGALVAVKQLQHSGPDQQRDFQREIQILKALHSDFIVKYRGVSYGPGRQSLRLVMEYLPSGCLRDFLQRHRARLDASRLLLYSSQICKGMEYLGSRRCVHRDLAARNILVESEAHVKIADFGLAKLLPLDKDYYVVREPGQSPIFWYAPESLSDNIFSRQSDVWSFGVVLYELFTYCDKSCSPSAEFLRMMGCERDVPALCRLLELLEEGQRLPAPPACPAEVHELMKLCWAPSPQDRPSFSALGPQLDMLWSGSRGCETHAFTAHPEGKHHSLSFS
Sequence of EGFR T790M (P00533 25-1210 T790M): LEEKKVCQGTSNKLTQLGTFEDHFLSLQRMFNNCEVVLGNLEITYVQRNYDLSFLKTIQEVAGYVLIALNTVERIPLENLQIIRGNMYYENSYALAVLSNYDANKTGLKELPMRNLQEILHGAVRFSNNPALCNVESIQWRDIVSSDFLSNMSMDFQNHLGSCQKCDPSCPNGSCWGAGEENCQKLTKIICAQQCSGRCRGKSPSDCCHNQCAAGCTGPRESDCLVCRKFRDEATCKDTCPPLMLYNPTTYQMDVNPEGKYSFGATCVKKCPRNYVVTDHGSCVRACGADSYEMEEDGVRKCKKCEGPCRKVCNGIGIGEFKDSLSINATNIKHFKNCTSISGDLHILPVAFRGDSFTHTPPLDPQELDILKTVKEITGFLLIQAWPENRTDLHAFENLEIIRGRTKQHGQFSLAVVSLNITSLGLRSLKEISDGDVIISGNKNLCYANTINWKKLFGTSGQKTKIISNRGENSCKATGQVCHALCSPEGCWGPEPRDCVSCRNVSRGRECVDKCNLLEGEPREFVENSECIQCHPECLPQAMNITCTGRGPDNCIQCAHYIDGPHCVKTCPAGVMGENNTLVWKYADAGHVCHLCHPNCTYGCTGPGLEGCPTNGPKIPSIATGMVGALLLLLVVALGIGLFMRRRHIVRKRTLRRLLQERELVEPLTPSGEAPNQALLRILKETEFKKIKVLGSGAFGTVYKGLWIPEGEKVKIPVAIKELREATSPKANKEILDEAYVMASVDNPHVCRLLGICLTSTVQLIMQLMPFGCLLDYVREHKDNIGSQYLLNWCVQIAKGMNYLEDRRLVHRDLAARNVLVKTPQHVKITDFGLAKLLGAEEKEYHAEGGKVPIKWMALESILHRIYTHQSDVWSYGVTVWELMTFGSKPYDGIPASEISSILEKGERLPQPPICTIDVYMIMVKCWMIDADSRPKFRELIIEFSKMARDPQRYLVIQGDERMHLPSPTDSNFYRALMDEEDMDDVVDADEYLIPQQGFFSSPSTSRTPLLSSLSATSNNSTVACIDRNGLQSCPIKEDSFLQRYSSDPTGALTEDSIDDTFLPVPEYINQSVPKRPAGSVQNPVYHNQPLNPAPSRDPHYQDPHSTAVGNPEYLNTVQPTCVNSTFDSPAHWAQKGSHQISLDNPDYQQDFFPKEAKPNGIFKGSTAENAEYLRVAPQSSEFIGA

| IC50 (EGFR T790M) [nM] | >50% occupancy (concentration at which >50% of BTK is occupied) (BTK [2]) | >90% occupancy (concentration at which >90% of BTK is occupied) (BTK [2]) | BTK occupancy (BTK available to probe I-215) (BTK [4]) | Structure (SMILES) | % inhibition foot pad swelling [1] [%] | % inhibition ankle swelling (PG-PS arthritis model) [%] | covalent modification of JAK3 (Cys909, peptide LVMEYLPSGCLR) by mass spectrometry (JAK3 kinase) | % Inhibition IgG3 (1:100) [3] [%] | % Inhibition IgM (1:1600) [3] [%] | covalent modification of BTK (mass spectrometry) (BTK [5]) |
| --- | --- | --- | --- | --- | --- | --- | --- | --- | --- | --- |
| < 10 | – | – | – | Cc1cccc(Nc2nc(Nc3cccc(NC(=O)/C=C/CN(C)C)c3)ncc2F)c1 [Compound I-4, (E)-4-(dimethylamino)-N-(3-(5-fluoro-4-(m-tolylamino)pyrimidin-2-ylamino)phenyl)but-2-enamide] | – | – | – | – | – | – |
| – | A (greater than 1 nM) | B (greater than 10 nM) | fully occupied | C=CC(=O)Nc1cccc(Nc2nc(Nc3ccccc3)ncc2C)c1 [Compound I-7, N-(3-(5-methyl-2-(phenylamino)pyrimidin-4-ylamino)phenyl) acrylamide] | 83 | 77.5 | not entirely complete; also recorded: covalent modification | 57 | 48 | complete modification; also recorded: covalent modification |
